According to PubChem BioAssay AID1208 (EPA DSSTox, 2008):
Active and inactive are the calls of the source.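 How the source made its calls: active means at least one rat sex group has a carcinogenic potency value and tumor site recorded; inconclusive means only rat studies were judged inadequate by the national testing program; inactive means no potency or tumor site, with negative rat experiments.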

Test system: rat chronic carcinogenicity bioassay, TD50
Test: DSSTox (CPDBAS) Carcinogenic Potency Database Summary Rat Bioassay Results
Settings: for Potency: stronger effect = lower value
In short: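 The activity score maps log10(1/TD50_Rat_mmol) linearly onto 1–100; actives without a computed TD50, such as mixtures, receive 50. Source data are chronic rat carcinogenicity tests, using the most positive experiment for each sex.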

[1] = TD50_Rat_Note: no positive results
[2] = TD50_Rat_Note: no positive results, TargetSites_Rat_Female: no positive results
[3] = TD50_Rat_Note: TD50 is harmonic mean of more than one positive test, TargetSites_Rat_Female: stomach
[4] = TargetSites_Rat_Female: no positive results
[5] = TD50_Rat_Note: TD50 is harmonic mean of more than one positive test, TargetSites_Rat_Female: liver
[6] = TargetSites_Rat_Female: mammary gland
[7] = TD50_Rat_Note: positive test results only by intraperitoneal or intravenous injection, TD50 is harmonic mean of more than one positive, TargetSites_Rat_Female: mammary gland, peritoneal cavity
[8] = TD50_Rat_Note: TD50 is harmonic mean of more than one positive test, TargetSites_Rat_Female: kidney

CN(N=O)C(=O)c1ccccc1C(=O)N(C)N=O
outcome [1]: inactive; no positive results

O=C(C1CCCCC1)N1CC(=O)N2CCc3ccccc3C2C1 (stereo not given)
outcome [2]: inactive; no positive results

CC/C=C(/CC)[N+](=O)[O-]
Potency (TargetSites_Rat_BothSexes: lung): 8.66 mg/kg/day

CC(C)(C)c1cc(CO)cc(C(C)(C)C)c1O
outcome [2]: inactive; no positive results

C1OC1C1CO1 (stereo not given)
outcome [2]: inactive

Cc1cc(O)c(C(C)(C)C)cc1Sc1cc(C(C)(C)C)c(O)cc1C
outcome [2]: inactive; no positive results

C[N+](C)(C)CCCl
outcome [2]: inactive; no positive results

Nc1ccc(N=Nc2ccccc2)c(N)n1
Potency (TD50_Rat_Note: TD50 is harmonic mean of more than one positive test, TargetSites_Rat_Female: large intestine): 303 mg/kg/day

C=CC(=O)OCC
Potency [3]: 119 mg/kg/day

CC(C)=CCC/C(C)=C/C=O
outcome [2]: inactive; no positive results

CC1=CC(=O)CC(C)(C)C1
Potency [4]: 1210 mg/kg/day

Nc1cccc2c(N)cccc12
Potency (TargetSites_Rat_Female: clitoral gland, uterus): 69.6 mg/kg/day

CCCc1cc(=O)[nH]c(=S)[nH]1
Potency (TD50_Rat_Note: TD50 is harmonic mean of more than one positive test, TargetSites_Rat_Female: thyroid gland): 13.7 mg/kg/day

COCCl
Potency: 5.5 mg/kg/day

CC[N+]([O-])=NC
Potency: 0.0189 mg/kg/day

CC(=O)O[C@H]1CC[C@@]2(C)C(=CC[C@@H]3[C@@H]2CC[C@]2(C)C(=O)CC[C@@H]32)C1
Potency [5]: 49.6 mg/kg/day

O=C1OC(c2ccc(O)cc2)(c2ccc(O)cc2)c2ccccc21
Potency (TD50_Rat_Note: TD50 is harmonic mean of more than one positive test, TargetSites_Rat_Female: adrenal gland): 902 mg/kg/day

CC(=O)Nc1ccc(-c2ccccc2)cc1
Potency [6]: 1.18 mg/kg/day

Oc1ccccc1O
Potency (TD50_Rat_Note: TD50 is harmonic mean of more than one positive test, harmonic mean of TD50 includes a value for upper 99% confidence li, TargetSites_Rat_Female: stomach): 71.5 mg/kg/day

CN(C)N=O
Potency (TD50_Rat_Note: TD50 is harmonic mean of more than one positive test, greater than ten-fold variation among TD50 values for positive res, TargetSites_Rat_Female: liver, vascular system): 0.0959 mg/kg/day

Cc1ccc(Cc2cnc(NCCSCc3ccc(CN(C)C)o3)[nH]c2=O)cn1
Potency [3]: 3360 mg/kg/day

CCN(Cc1cccc(S(=O)(=O)[O-])c1)c1ccc(C(=C2C=CC(=[N+](C)C)C=C2)c2ccc(N(CC)Cc3cccc(S(=O)(=O)O)c3)cc2)cc1
Potency (TD50_Rat_Note: TD50 is harmonic mean of more than one positive test, TargetSites_Rat_Female: mammary gland, skin): 612 mg/kg/day

COC(N)=O
Potency (TD50_Rat_Note: TD50 is harmonic mean of more than one positive test, greater than ten-fold variation among TD50 values for positive res, TargetSites_Rat_Female: liver): 56.6 mg/kg/day

C=CCN(CC(C)O)N=O (stereo not given)
Potency (TargetSites_Rat_Female: esophagus, liver, nasal cavity): 0.877 mg/kg/day

CCOc1ccc2c(c1)C(C)=CC(C)(C)N2
outcome [2]: inactive; no positive results

O=C1C=C2C(=CCOC2O)O1 (stereo not given)
outcome [2]: inactive

Nc1nc(=S)c2ncn([C@H]3C[C@H](O)[C@@H](CO)O3)c2[nH]1
Potency (TD50_Rat_Note: positive test results only by intraperitoneal or intravenous injection, TargetSites_Rat_Female: ear Zymbals gland): 2.1 mg/kg/day

N#CSCc1ccccc1
outcome [1]: inactive; no positive results

CN(N=O)c1cccnc1
outcome [2]: inactive

C=C(C)[C@H]1CC=C(C)CC1
Potency [4]: 204 mg/kg/day

O=c1cc[nH]c(=O)[nH]1
Potency (TD50_Rat_Note: TD50 is harmonic mean of more than one positive test, greater than ten-fold variation among TD50 values for positive res, TargetSites_Rat_Female: urinary bladder): 671 mg/kg/day

ClCCl
Potency (TD50_Rat_Note: TD50 is harmonic mean of more than one positive test, TargetSites_Rat_Female: mammary gland): 724 mg/kg/day

COc1ccc(C(=O)Nc2c(Cl)cncc2Cl)cc1OC1CCCC1
Potency (TD50_Rat_Note: TD50 is harmonic mean of more than one positive test, TargetSites_Rat_Female: nasal cavity): 1.54 mg/kg/day

CCC1(CCC(C)C)C(=O)NC(=O)NC1=O
outcome [1]: inactive; no positive results

COc1cc2c(c3c1c(=O)c1ccccc1n3C)C=CC(C)(C)O2
Potency [7]: 0.505 mg/kg/day

OCC(O)CCl (stereo not given)
outcome [2]: inactive; no positive results

O
outcome [2]: inactive; no positive results

Clc1ccccc1Cl
outcome [2]: inactive; no positive results

CC(C)CCC[C@@H](C)[C@H]1CC[C@H]2[C@@H]3CC=C4C[C@@H](OC(=O)Cc5ccc(N(CCCl)CCCl)cc5)CC[C@]4(C)[C@H]3CC[C@]12C
Potency [6]: 0.523 mg/kg/day

N/C(=N\O)c1ccc([N+](=O)[O-])o1
outcome [2]: inactive

O=[N+]([O-])c1cc([As](=O)(O)O)ccc1O
outcome [2]: inactive; no positive results

Nc1ccc(N)c(Cl)c1
outcome [2]: inactive; no positive results

CCCN(CCC)c1ccc(N=Nc2cc[n+]([O-])cc2)cc1
outcome [1]: inactive; no positive results

NC(=O)NC1NC(=O)NC1=O (stereo not given)
outcome [2]: inactive; no positive results

C=CC(OCC)OCC
outcome [2]: inactive; no positive results

O[C@@H]([C@H](O)[C@@H](O)CBr)[C@@H](O)CBr
Potency [7]: 27.6 mg/kg/day

CC[C@H](C)[C@H]1O[C@]2(CC[C@@H]1C)C[C@@H]1C[C@@H](C/C=C(\C)[C@@H](O[C@H]3C[C@H](OC)[C@@H](O[C@H]4C[C@H](OC)[C@@H](O)[C@H](C)O4)[C@H](C)O3)[C@@H](C)/C=C/C=C3\CO[C@@H]4[C@H](O)C(C)=C[C@@H](C(=O)O1)[C@]34O)O2
outcome [1]: inactive; no positive results

CCOC(=O)C(C)(C)Oc1ccc(Cl)cc1
Potency: 169 mg/kg/day

Cc1c(N(C)CS(=O)(=O)O)c(=O)n(-c2ccccc2)n1C
outcome [2]: inactive; no positive results

CC(=O)CN(CCO)N=O
Potency (TargetSites_Rat_Female: liver): 1.8 mg/kg/day

C=CN1CCCC1=O
Potency (TD50_Rat_Note: TD50 is harmonic mean of more than one positive test, TargetSites_Rat_Female: liver, nasal cavity, oral cavity): 12 mg/kg/day

c1ccc2[nH]c(-c3cscn3)nc2c1
outcome [2]: inactive; no positive results

Cc1csc(NNC=O)n1
Potency [6]: 14.4 mg/kg/day

NC(=O)N(CCF)N=O
Potency: 0.125 mg/kg/day

COc1cc2c(c3oc(=O)c4c(c13)CCC4=O)C1C=COC1O2 (stereo not given)
Potency (TD50_Rat_Note: TD50 is harmonic mean of more than one positive test, harmonic mean of TD50 includes a value for upper 99% confidence li, TargetSites_Rat_Female: large intestine, liver): 0.0032 mg/kg/day

ClC(Cl)=C(Cl)C(Cl)=C(Cl)Cl
Potency [8]: 65.8 mg/kg/day

CN(C)C(=S)[S][Pb][S]C(=S)N(C)C
outcome [2]: inactive; no positive results

O=Cc1ccccc1
outcome [2]: inactive; no positive results

Clc1ccc(C(c2ccc(Cl)cc2)C(Cl)(Cl)Cl)cc1
Potency [5]: 84.7 mg/kg/day

CC[C@H]1CN2CCc3cc(OC)c(OC)cc3[C@@H]2C[C@@H]1C[C@H]1NCCc2cc(OC)c(OC)cc21
outcome (TD50_Rat_Note: only experiment is NCI/NTP bioassay inadequate, TargetSites_Rat_Female: NTP bioassay inadequate): ntp bioassay inadequate

Nc1ccc2c(c1)oc1ccccc12
Potency: 2.48 mg/kg/day

CC(C)(C)O
Potency [4]: 64.6 mg/kg/day

CCCCCCOc1cc(C)c(O)c(C)c1C
outcome [2]: inactive

C=COC(C)=O
Potency (TD50_Rat_Note: TD50 is harmonic mean of more than one positive test, greater than ten-fold variation among TD50 values for positive res, TargetSites_Rat_Female: liver, nasal cavity, thyroid gland, uterus): 341 mg/kg/day

OCC1CO1 (stereo not given)
Potency (TD50_Rat_Note: TD50 is harmonic mean of more than one positive test, TargetSites_Rat_Female: clitoral gland, hematopoietic system, mammary gland, nervous system, oral cavity, stomach, thyroid gland): 4.28 mg/kg/day

Nc1ccc(Sc2ccc(N)cc2)cc1
Potency (TD50_Rat_Note: TD50 is harmonic mean of more than one positive test, TargetSites_Rat_Female: ear Zymbals gland, thyroid gland, uterus): 3.71 mg/kg/day

Nc1cc(S(=O)(=O)[O-])cc2cc(S(=O)(=O)[O-])c(N=Nc3ccc(-c4ccc(N=Nc5c(S(=O)(=O)[O-])cc6cc(S(=O)(=O)[O-])cc(N)c6c5O)c(O)c4)cc3O)c(O)c12.[Cu].[Cu].[Na+].[Na+].[Na+].[Na+]
Potency [4]: 1570 mg/kg/day

Nc1ccc([N+](=O)[O-])cc1
outcome [2]: inactive; no positive results

OCC(CO)(CBr)CBr
Potency (TD50_Rat_Note: TD50 is harmonic mean of more than one positive test, TargetSites_Rat_Female: esophagus, mammary gland, oral cavity, thyroid gland): 111 mg/kg/day

CC1=CC(C)(C)N(N=O)c2ccccc21
Potency (TD50_Rat_Note: positive test results only by intraperitoneal or intravenous injection, TD50_Rat_mmol was not calculated for this mixtur): 3.31 mg/kg/day

CN(CCCO)N=O
Potency (TD50_Rat_Note: TD50 is harmonic mean of more than one positive test, TargetSites_Rat_Female: liver, lung): 1.66 mg/kg/day

CN(N=O)c1ccncc1
outcome [2]: inactive

CC[C@]1(O)CC2CN(CCc3c([nH]c4ccccc34)[C@@](C(=O)OC)(c3cc4c(cc3OC)N(C)[C@H]3[C@@](O)(C(=O)OC)[C@H](OC(C)=O)[C@]5(CC)C=CCN6CC[C@]43[C@@H]65)C2)C1 (stereo not given in full)
outcome [1]: inactive; no positive results

[O-][Br+2]([O-])O
Potency [8]: 9.82 mg/kg/day

Nc1cc(S(=O)(=O)O)cc2cc(S(=O)(=O)O)c(N=Nc3ccc(-c4ccc(N=Nc5c(S(=O)(=O)O)cc6cc(S(=O)(=O)O)cc(N)c6c5O)cc4)cc3)c(O)c12
Potency [5]: 1.73 mg/kg/day

CC1CC(=O)O1 (stereo not given)
Potency (TargetSites_Rat_Female: stomach): 13.8 mg/kg/day

O=C1O[C@H]([C@@H](O)CO)C(O)=C1O
outcome [2]: inactive; no positive results

O=S(=O)(O)c1ccc(N=Nc2cc(S(=O)(=O)O)c3ccccc3c2O)c2ccccc12
outcome [2]: inactive; no positive results

NCC1(CC(=O)O)CCCCC1
Potency [4]: 5850 mg/kg/day

O=[N+]([O-])OCC(CO[N+](=O)[O-])O[N+](=O)[O-]
Potency [5]: 183 mg/kg/day

O=C(O)COc1cc(Cl)c(Cl)cc1Cl
outcome [2]: inactive; no positive results

CCCN(N=O)C(=N)N[N+](=O)[O-]
Potency (TD50_Rat_Note: TD50 is harmonic mean of more than one positive test): 1.31 mg/kg/day

c1ccc2c(c1)cc1ccc3cccc4ccc2c1c34
Potency (TargetSites_Rat_BothSexes: stomach): 0.956 mg/kg/day

O=[N+]([O-])c1ccc(-c2nc(N(CCO)CCO)c3ccccc3n2)s1
Potency: 3.14 mg/kg/day

[O]=[Mo](=[O])=[O]
outcome [2]: inactive; no positive results
